Experimental data taken from PubChem BioAssay (NCI).
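Dose response: 5 concentrations. Exposure: 48 h. Format: 96-well plates. Endpoint: linear interpolation; highest concentration if not reached. Here, GI50 denotes the concentration required for 50% inhibition of growth. TGI denotes the concentration required for complete inhibition of growth.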

Tests used:
Assay in all cases: DTP human tumour cell line panel, 48 h
SF-268 CNS = system: SF-268 CNS
MCF7 breast = system: MCF7 breast
SR leukemia = system: SR leukemia
MOLT-4 leukemia = system: MOLT-4 leukemia
NCI-H522 lung = system: NCI-H522 lung
HOP-62 NSCLC = system: HOP-62 NSCLC
SNB-19 CNS = system: SNB-19 CNS
NCI-H460 lung = system: NCI-H460 lung
MALME-3M melanoma = system: MALME-3M melanoma
SK-MEL-28 melanoma = system: SK-MEL-28 melanoma
KM12 colon = system: KM12 colon
A498 renal = system: A498 renal
SNB-75 CNS = system: SNB-75 CNS
LOX IMVI melanoma = system: LOX IMVI melanoma
HT29 colon = system: HT29 colon
DU-145 prostate = system: DU-145 prostate
UO-31 renal = system: UO-31 renal
NCI-H226 lung = system: NCI-H226 lung
SF-539 CNS = system: SF-539 CNS
HCC-2998 colon = system: HCC-2998 colon
BT-549 breast = system: BT-549 breast
NCI/ADR-RES ovarian = system: NCI/ADR-RES ovarian
M14 melanoma = system: M14 melanoma
MDA-MB-231 breast = system: MDA-MB-231 breast
OVCAR-3 ovarian = system: OVCAR-3 ovarian
COLO 205 colon = system: COLO 205 colon
PC-3 prostate = system: PC-3 prostate
A549 NSCLC = system: A549 NSCLC
RXF 393 renal = system: RXF 393 renal
HCT-116 colon = system: HCT-116 colon
ACHN renal = system: ACHN renal
K-562 leukemia = system: K-562 leukemia
IGROV1 ovarian = system: IGROV1 ovarian
TK-10 renal = system: TK-10 renal
OVCAR-8 ovarian = system: OVCAR-8 ovarian
RPMI-8226 leukemia = system: RPMI-8226 leukemia
786-0 renal = system: 786-0 renal
SK-OV-3 ovarian = system: SK-OV-3 ovarian
OVCAR-4 ovarian = system: OVCAR-4 ovarian
HL-60(TB) leukemia = system: HL-60(TB) leukemia
HS 578T breast = system: HS 578T breast
SF-295 CNS = system: SF-295 CNS
HOP-92 NSCLC = system: HOP-92 NSCLC
SK-MEL-5 melanoma = system: SK-MEL-5 melanoma
NCI-H23 lung = system: NCI-H23 lung
CCRF-CEM leukemia = system: CCRF-CEM leukemia
SW-620 colon = system: SW-620 colon
T-47D breast = system: T-47D breast
SN12C renal = system: SN12C renal
U251 CNS = system: U251 CNS
HCT-15 colon = system: HCT-15 colon
CAKI-1 renal = system: CAKI-1 renal
MDA-MB-435 = system: MDA-MB-435
UACC-62 melanoma = system: UACC-62 melanoma
UACC-257 melanoma = system: UACC-257 melanoma
OVCAR-5 ovarian = system: OVCAR-5 ovarian

CCCCCCC(O)(c1ccc(F)cc1)C(CN1CCOCC1)c1ccccc1 (configuration not stated)
GI50 (SF-268 CNS): 13 µM
TGI (SF-268 CNS): 28.4 µM
GI50 (MCF7 breast): 11.7 µM
TGI (MCF7 breast): 24.4 µM
GI50 (SR leukemia): 11.9 µM
TGI (SR leukemia): 29.8 µM
GI50 (MOLT-4 leukemia): 13.3 µM
TGI (MOLT-4 leukemia): 32.4 µM
GI50 (NCI-H522 lung): 8.14 µM
TGI (NCI-H522 lung): 22.3 µM
GI50 (HOP-62 NSCLC): 19.2 µM
TGI (HOP-62 NSCLC): 35.3 µM
GI50 (SNB-19 CNS): 12.8 µM
TGI (SNB-19 CNS): 27.5 µM
GI50 (NCI-H460 lung): 13.4 µM
TGI (NCI-H460 lung): 29.3 µM
GI50 (MALME-3M melanoma): 15 µM
TGI (MALME-3M melanoma): 33.4 µM
GI50 (SK-MEL-28 melanoma): 16.4 µM
TGI (SK-MEL-28 melanoma): 34.5 µM
GI50 (KM12 colon): 12.4 µM
TGI (KM12 colon): 28.4 µM
GI50 (A498 renal): 11.6 µM
TGI (A498 renal): 30 µM
GI50 (SNB-75 CNS): 14.4 µM
TGI (SNB-75 CNS): 35.9 µM
GI50 (LOX IMVI melanoma): 16.2 µM
TGI (LOX IMVI melanoma): 31.1 µM
GI50 (HT29 colon): 5.37 µM
TGI (HT29 colon): 19.9 µM
GI50 (DU-145 prostate): 14.6 µM
TGI (DU-145 prostate): 28.7 µM
GI50 (UO-31 renal): 11.6 µM
TGI (UO-31 renal): 26.4 µM
GI50 (NCI-H226 lung): 8.63 µM
TGI (NCI-H226 lung): 24.8 µM
GI50 (SF-539 CNS): 15.6 µM
TGI (SF-539 CNS): 29.6 µM
GI50 (HCC-2998 colon): 13.8 µM
TGI (HCC-2998 colon): 29.3 µM
GI50 (BT-549 breast): 14.7 µM
TGI (BT-549 breast): 29.6 µM
GI50 (NCI/ADR-RES ovarian): 12.1 µM
TGI (NCI/ADR-RES ovarian): 34.2 µM
GI50 (M14 melanoma): 16.3 µM
TGI (M14 melanoma): 34.4 µM
GI50 (MDA-MB-231 breast): 11.4 µM
TGI (MDA-MB-231 breast): 26.5 µM
GI50 (OVCAR-3 ovarian): 12.5 µM
TGI (OVCAR-3 ovarian): 25.4 µM
GI50 (COLO 205 colon): 12.1 µM
TGI (COLO 205 colon): 27 µM
GI50 (PC-3 prostate): 5.24 µM
TGI (PC-3 prostate): 21.3 µM
GI50 (A549 NSCLC): 11.7 µM
TGI (A549 NSCLC): 29.3 µM
GI50 (RXF 393 renal): 5.26 µM
TGI (RXF 393 renal): 19 µM
GI50 (HCT-116 colon): 8.53 µM
TGI (HCT-116 colon): 24.6 µM
GI50 (ACHN renal): 12.3 µM
TGI (ACHN renal): 24.9 µM
GI50 (K-562 leukemia): 14.9 µM
TGI (K-562 leukemia): 37.7 µM
GI50 (IGROV1 ovarian): 12.8 µM
TGI (IGROV1 ovarian): 41.9 µM
GI50 (TK-10 renal): 18 µM
TGI (TK-10 renal): 32.8 µM
GI50 (OVCAR-8 ovarian): 14.2 µM
TGI (OVCAR-8 ovarian): 34.8 µM
GI50 (RPMI-8226 leukemia): 5.48 µM
TGI (RPMI-8226 leukemia): 21.7 µM
GI50 (786-0 renal): 13.2 µM
TGI (786-0 renal): 27.3 µM
GI50 (SK-OV-3 ovarian): 16 µM
TGI (SK-OV-3 ovarian): 36.7 µM
GI50 (OVCAR-4 ovarian): 14.2 µM
TGI (OVCAR-4 ovarian): 29.8 µM
GI50 (HL-60(TB) leukemia): 12 µM
TGI (HL-60(TB) leukemia): 31.6 µM
GI50 (HS 578T breast): 14.8 µM
TGI (HS 578T breast): 40 µM
GI50 (SF-295 CNS): 15.3 µM
TGI (SF-295 CNS): 31.5 µM
GI50 (HOP-92 NSCLC): 12.8 µM
TGI (HOP-92 NSCLC): 26.1 µM
GI50 (SK-MEL-5 melanoma): 4.64 µM
TGI (SK-MEL-5 melanoma): 18.6 µM
GI50 (NCI-H23 lung): 11.1 µM
TGI (NCI-H23 lung): 30.6 µM
GI50 (CCRF-CEM leukemia): 13.9 µM
TGI (CCRF-CEM leukemia): 32.9 µM
GI50 (SW-620 colon): 12.2 µM
TGI (SW-620 colon): 26.3 µM
GI50 (T-47D breast): 10.4 µM
TGI (T-47D breast): 23.8 µM
GI50 (SN12C renal): 12.7 µM
TGI (SN12C renal): 28.3 µM
GI50 (U251 CNS): 12.2 µM
TGI (U251 CNS): 25.1 µM
GI50 (HCT-15 colon): 11.5 µM
TGI (HCT-15 colon): 24.7 µM
GI50 (CAKI-1 renal): 12.5 µM
TGI (CAKI-1 renal): 28.9 µM
GI50 (MDA-MB-435): 15.8 µM
TGI (MDA-MB-435): 41.7 µM
GI50 (UACC-62 melanoma): 11.4 µM
TGI (UACC-62 melanoma): 27.7 µM
GI50 (UACC-257 melanoma): 10.3 µM
TGI (UACC-257 melanoma): 27.3 µM
GI50 (OVCAR-5 ovarian): 13.8 µM
TGI (OVCAR-5 ovarian): 26.8 µM
